The record followed here is patent publication US7888368B2, “Treatment of drug-resistant tumors” (Sigma-Tau Industrie Farmaceutiche Riunite S.p.A., priority 2005, dated 2011).

Residue numbers refer to the chain shown, from its start.

The target in assay [1] is T1, human DNA topoisomerase I wild type (YCpGAL1 hTOP1) (Homo sapiens, UniProt P11387).
T1 sequence (P11387 1-765): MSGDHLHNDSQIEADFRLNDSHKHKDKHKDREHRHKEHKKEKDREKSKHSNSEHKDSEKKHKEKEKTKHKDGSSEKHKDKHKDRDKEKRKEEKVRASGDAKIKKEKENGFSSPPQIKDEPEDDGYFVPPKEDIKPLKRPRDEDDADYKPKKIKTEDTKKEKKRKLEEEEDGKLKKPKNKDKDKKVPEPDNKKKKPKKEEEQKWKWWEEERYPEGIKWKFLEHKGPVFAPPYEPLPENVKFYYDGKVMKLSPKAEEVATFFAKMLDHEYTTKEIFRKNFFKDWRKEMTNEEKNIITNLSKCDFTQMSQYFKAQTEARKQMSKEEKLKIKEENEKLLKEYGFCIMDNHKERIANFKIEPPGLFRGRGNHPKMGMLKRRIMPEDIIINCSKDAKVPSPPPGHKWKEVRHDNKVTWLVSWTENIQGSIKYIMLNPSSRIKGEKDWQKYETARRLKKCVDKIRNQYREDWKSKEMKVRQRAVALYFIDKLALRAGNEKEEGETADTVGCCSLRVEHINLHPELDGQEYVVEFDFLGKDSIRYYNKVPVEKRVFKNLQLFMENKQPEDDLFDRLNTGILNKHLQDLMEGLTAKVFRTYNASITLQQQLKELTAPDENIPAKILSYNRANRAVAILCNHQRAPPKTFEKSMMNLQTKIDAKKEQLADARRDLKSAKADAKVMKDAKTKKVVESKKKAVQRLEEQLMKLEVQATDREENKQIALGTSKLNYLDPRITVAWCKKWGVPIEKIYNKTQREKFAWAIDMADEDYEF
Kind of assay: In vivo spot test, yeast transformed with human DNA topoisomerase I wild type. As to conditions: Saccharomyces cerevisiae EKY2, 2% galactose, drug 45 μM, 48-72 h at 30° C.
Description: Before to transform the yeast cells with DNA (lithium acetate method), yeast was grown on solid medium. It was streaked on plates of 90 mm containing sterile solid medium (YPDA) (10 g yeast, 20 g peptone, 20 g dextrose, 0.7 g adenine, 20 g glucose, 20 g agar for liter). Colonies were grown after 48 h at 30° C. One day before the transformation, a single yeast colony of the strain to be transformed was inoculated in 5 ml of steril liquid YPDA (the medium above mentioned without agar). The colony was grown to saturation overnight under stirring at 30° C. The day after, 5 ml of saturated culture was diluted in 100 ml of YPDA liquid medium and grown at 30° C. to reach an optical density of 1.0 at 600 nm. Cells were centrifuged for 5 min at 4000×g at room temperature and the pellet was resuspended in 25 ml of a solution (T/E) containing 10 mM Tris-EDTA pH7.5, 1 mM EDTA and 100 mM lithium acetate. The yeast suspension was centrifuged for 5 min at 4000×g at room temperature. The pellet was resuspended in a fresh solution above described (about 500 μl) to obtain 2×10^9 cells/ml. To have the transformation, 200 μg of DNA carrier were mixed with 1 μg transforming DNA and 200 μl yeast cells in an eppendorf. Subsequently, 1.2 ml of a solution TE/lithium acetate containing 40% PEG were added and the yeast suspension was kept under stirring for 30 min at 30° C. A heat shock was performed by keeping the yeast suspension at 42° C. for 15 min. Subsequently it was centrifuged 5 sec at room temperature. Yeast was resuspended in TE buffer and spread up onto CM (complete minimal) dropout medium on plates. CM was previously prepared with 1.3 g of dropout powder containing different aminoacids without uracil, 1.7 g yeast nitrogen base without aminoacids and ammonium sulfate, 5 g ammonium sulfate, 20 g glucose and 20 of agar for liter). The plates were incubated at 30° C. until transformants appear.
To perform the in vivo spot test, the transformants were inoculated in 5 ml of steril liquid CM medium and grown overnight under stirring at 30° C. The day after a dilution of the yeast colonies was made to reach an optical density at 600 nm of 0.3. Starting from this first dilution, other serial dilutions (1:10, 1:100, 1:1000) were performed in plates of 96 well. 5 μl of each dilution were put on plates of 90 mm containing solid CM medium. For the control samples, 2% glucose or 2% galactose were added; for the camptothecin-derivatives treated samples, 2% galactose and the drugs at a concentration 45 μM were added. The yeast colonies were incubated at 30° C. for 48-72 h and analyzed macroscopically.

The subject of assay [2] is A2780/ADR multidrug-resistant ovarian carcinoma. Kind of assay: Antitumor activity on A2780/ADR resistant tumor xenograft. Type of assay: in vivo, human. As to conditions: A2780/ADR s.c. in nude athymic mice, q4d × 4. The text has this:
(§1) Using a q4d dosing schedule repeated for 3-5 doses, ST1968 was compared to irinotecan or other known chemotherapeutic agents against different human tumor models (Table 2), including A2780/ADR multidrug-resistant ovarian carcinoma which overexpresses PgP glycoprotein, A2780/DDP platinum-resistant ovarian carcinoma and DU145RC1 camptothecin-resistant prostate carcinoma which was previously selected by continuous exposure of the parental sensitive DU145 to 9-nitro-camptothecin (Urasaki Y et al., 2001, Cancer Res 61, 1964-9). On this selected tumor cell line, a Topoisomerase I mutation which changes the arginine 364 codon to histidine (R364H) was found. The 364H point mutation was located in the highly conserved core, a region of Topoisomerase I within the Topoisomerase I amino acid residues 361-364 critical for camptothecin resistance. Moreover, this mutation site is close to the catalytic tyrosine. The resistance of the Topoisomerase I/R364H is probably attributable to the loss of a critical H-bond between R364 and camptothecin E-ring lactone moiety.
(§2) Exponentially growing tumor cells were injected s.c. into nude athymic mice. The number of tumor cells was previously chosen by a growth curve. Mice were housed inside cages of makrolon (33.2×15×13 cm) with stainless steel cover-feed and sterilized and dust-free bedding cobs. Animals were housed under a light-dark cycle, keeping temperature and humidity constant. Parameters of the animal rooms were assessed as follows: 22±2° C. temperature, 55±10% relative humidity, about 15-20 filtered air changes/hour and 12 hour circadian cycle of artificial light (7 a.m., 7 p.m.). At request, the environmental conditions were monitored and the data are retained in Animal Housing Archives. Drinking water was supplied ad libitum. Each mouse was offered daily a complete pellet diet (GLP 4RF21, Mucedola) throughout the study. The analytical certificates of animal food and water are retained at Sigma-Tau premises. All animals were weighed before starting the experiment and were subdivided into the different dosage groups. Each cage was identified by a paper tag indicating: cage number, group, date of tumor injection, starting date of treatment, name of the test item, dose and route of administration, date of sacrifice.
(§3) Tumor growth was followed by biweekly measurements of tumor diameters with a Vernier caliper. Tumor volume (TV, mm^3) was calculated as: [length (mm)×width (mm)^2]/2, where the width and the length are the shortest and the longest diameters of each tumor, respectively.
(§4) The efficacy of the drug treatment was assessed as: a) Tumor volume inhibition (TVI %) in treated versus control mice, calculated as: 100−[(mean tumor volume of treated animals/mean tumor volume of control animals)×100]; b) LCK (log10 cell kill) calculated by the formula LCK=(T−C)/3.32×DT, where T and C are the mean times (days) required for treated (T) and control (C) tumor, respectively, to reach 1000 mm^3, and DT is the doubling time of control tumors; CR meaning no evidence of tumor lasting for at least 10 days.
On the technique in general: In xenograft studies the graft and the host belong to different species.

Assay [3] addresses T2, human DNA topoisomerase I mutant YCpGAL1htop1K720E (Homo sapiens, UniProt P11387, K720E).
T2 sequence (P11387 1-765 K720E): T1 sequence (P11387 1-765) with K720E
As to the kind of experiment: In vivo spot test, yeast transformed with human DNA topoisomerase I mutant K720E. It counts as cell-based. Particulars: Saccharomyces cerevisiae EKY2, 2% galactose, drug 45 μM, 48-72 h at 30° C.

The subject of assay [4] is DU145RC1 camptothecin-resistant prostate carcinoma. As to the kind of experiment: Antitumor activity on DU145RC1 resistant tumor xenograft. It counts as in vivo, human. As to conditions: DU145 RC1 s.c. in nude athymic mice, q4d × 5.
Description: as §1, §2, §3, §4

Assay [5] has as its system DU145 sensitive prostate carcinoma. As to the kind of experiment: Antitumor activity on DU145 tumor xenograft. Type of assay: in vivo, human. As to conditions: DU145 s.c. in nude athymic mice, 35 iv mg/kg, q4d × 4. The text has this: Using a q4d dosing schedule repeated for 3-5 doses, ST1968 was compared to irinotecan or other known chemotherapeutic agents against different human tumor models (Table 2), including A2780/ADR multidrug-resistant ovarian carcinoma which overexpresses PgP glycoprotein, A2780/DDP platinum-resistant ovarian carcinoma and DU145RC1 camptothecin-resistant prostate carcinoma which was previously selected by continuous exposure of the parental sensitive DU145 to 9-nitro-camptothecin (Urasaki Y et al., 2001, Cancer Res 61, 1964-9). On this selected tumor cell line, a Topoisomerase I mutation which changes the arginine 364 codon to histidine (R364H) was found. […]
Exponentially growing tumor cells were injected s.c. into nude athymic mice. […] Parameters of the animal rooms were assessed as follows: 22±2° C. temperature, 55±10% relative humidity, about 15-20 filtered air changes/hour and 12 hour circadian cycle of artificial light (7 a.m., 7 p.m.). At request, the environmental conditions were monitored and the data are retained in Animal Housing Archives. […]
Tumor growth was followed by biweekly measurements of tumor diameters with a Vernier caliper. Tumor volume (TV, mm^3) was calculated as: [length (mm)×width (mm)^2]/2, where the width and the length are the shortest and the longest diameters of each tumor, respectively. […]

Assay [6] has as its system A2780/DDP platinum-resistant ovarian carcinoma. As to the kind of experiment: Antitumor activity on A2780/DDP resistant tumor xenograft. It counts as in vivo, human. As to conditions: A2780/DDP s.c. in nude athymic mice, q4d × 3.
Description: as §1, §2, §3, §4

In the case of `CC[C@@]1(O)C(=O)OCc2c1cc1n(c2=O)Cc2c-1nc1ccccc1c2/C=N/OC(C)(C)C` [ST1481, 7-t-butoxyiminomethylcamptothecin], in assay [1], the “growth of the yeasts transformed with the DNA topoisomerase I wild type” value (“growth of the yeasts transformed” for short) is on record as “inhibit the growth”.
As for `CCC1(O)C(=O)OCc2c1cc1n(c2=O)Cc2c-1nc1ccccc1c2C=NOCCN1CCOCC1` (stereo not drawn) [ST1600, 7-[2-(4-morpholinyl)ethoxy]iminomethylcamptothecin], in assay [1], the “growth of the yeasts transformed” value was “inhibit the growth”.
Take `CC[C@@]1(O)C(=O)OCc2c1cc1n(c2=O)Cc2c-1nc1ccccc1c2/C=N\OCCN` [ST1968, 7-(2-amino)ethoxyiminomethylcamptothecin]: the CR in assay [2] (15 mg/kg) was 6/8; in assay [4] (30 mg/kg), 0/8; in assay [6] (15 mg/kg), 8/8; in assay [6] (30 mg/kg), 7/7. Moreover, the LCK in assay [2] (15 mg/kg) is listed as 2.2; in assay [2] (30 mg/kg), 1.9; in assay [4] (30 mg/kg), 1.3; in assay [5] it was 0.65; in assay [6] (15 mg/kg), 6.3; in assay [6] (30 mg/kg), >>6.3. In addition, the TVI % in assay [2] (15 mg/kg) stood at 99%; in assay [2] (30 mg/kg), 100%; in assay [4] (30 mg/kg), 65%; in assay [5] it was 66%; in assay [6] (15 mg/kg), 100%; in assay [6] (30 mg/kg), 100%. In assay [3], the “growth of the transformed YCpGAL1htop1K720E mutant” value was “able to inhibit the growth”. For the same compound, in assay [1], the “growth of the yeasts transformed” value is “inhibit the growth”.
Turning to `CCC1(O)C(=O)OCc2c1cc1n(c2=O)Cc2c-1nc1ccccc1c2C=NOCCN(C)C` (stereo not drawn) [ST1969, 7-(2-dimethylamino)ethoxyiminomethylcamptothecin], the “growth of the transformed YCpGAL1htop1K720E mutant” value in assay [3] is given as “able to inhibit the growth”. Moreover, the “growth of the yeasts transformed” value in assay [1] is listed as “inhibit the growth”.
As for `CCC1(O)C(=O)OCc2c1cc1n(c2=O)Cc2c-1nc1ccccc1c2C=NOCc1ccc(N)cc1` (stereo not drawn) [ST1976, 7-(4-amino)benzyloxyiminomethylcamptothecin], in assay [1], the “growth of the yeasts transformed” value was “inhibit the growth”.
The same measure, in the same setting: the value for `CC[C@@]1(O)C(=O)OCc2c1cc1n(c2=O)Cc2cc3ccccc3nc2-1` [camptothecin] was “inhibit the growth”.
For `N.N.O=C([O-])C1(C(=O)[O-])CCC1.[Pt+2]` [carboplatin], in assay [2] (33.3 mg/kg), the CR was 0/7, the LCK was found to be 0.6 and the TVI % was determined as 62%. Further, in assay [6] (25 mg/kg), the CR is recorded as 0/8, the LCK is given as 0.5 and the TVI % was determined as 26%.
As to `CCc1c2c(nc3ccc(OC(=O)N4CCC(N5CCCCC5)CC4)cc13)-c1cc3c(c(=O)n1C2)COC(=O)[C@]3(O)CC` [irinotecan], in assay [4] (60 mg/kg), the CR is given as 0/8, the LCK is on record as 0.8 and the TVI % was 45%.
Consider `CC(=O)O[C@H]1C(=O)[C@@]2(C)[C@H]([C@H](OC(=O)c3ccccc3)[C@]3(O)C[C@H](OC(=O)[C@H](O)[C@@H](NC(=O)c4ccccc4)c4ccccc4)C(C)=C1C3(C)C)[C@]1(OC(C)=O)CO[C@@H]1C[C@@H]2O` [paclitaxel], for which, in assay [2] (16 mg/kg), the CR is 0/8, the LCK is recorded as 0.1 and the TVI % was found to be 16%. In addition, in assay [6] (15 mg/kg), the CR is listed as 6/6, the LCK was determined as 1.4 and the TVI % is given as 94%.
With `CC[C@@]1(O)C(=O)OCc2c1cc1n(c2=O)Cc2cc3c(CN(C)C)c(O)ccc3nc2-1` [topotecan], in assay [2] (10 mg/kg), the CR is 1/6, the LCK amounted to 1.1 and the TVI % was 85%. Moreover, in assay [6] (10 mg/kg), the CR is listed as 1/8, the LCK is given as 1.2 and the TVI % was 93%.
